Patent US20240208961A1, “EIF4E INHIBITORS AND USES THEREOF” (PIC Therapeutics, Inc., priority 2022, published 2024)

Key:
ZR-75-1 = assay: Cell viability assay, adherent cell line, 5 day Alamar Blue (Example 8): ZR-75-1; format: cell-based; conditions: Homo sapiens, 120 h, ZR-75-1, Breast Cancer Cell Viability
Procedure: Cell viability assays were performed on certain compounds of the disclosure, according to the following procedure.
Cell line specific media conditions used:
The procedure for adherent cell line compound screening was as follows:
• Cells were seeded in 96-well cell culture treated tissue culture plates: ZR-75-1, NIHOVCAR3, T47D, and LOVO cells 4000 cells/well; and HPAFII 3000 cell/well
Day 3: Compound Dilution and Dosing
• 5-fold serial dilution (8 point) of each compound in DMSO 0-25 mM in compound storage plates was prepared (stored at −80° C. if not to be used immediately). • Cells were rinsed with 1% FBS Media (appropriate to cell line as described above) and replaced with 87.5 μL media prior to dosing. HPAFII was screened in normal 10% FBS Media. • DMSO compound dilution series was diluted in 1% FBS media (appropriate to cell line as described above)—2 μL in 248 μL to give an 8× final concentration. • Cells were dosed 12.5 μL/well in triplicate to give final dose curved on cells 0-25 μM. • Media blank 100 μL/well×8 was set up. • All plates were incubated at 37° C.
Day 8: 5 Day Viability Assay
• Alamar Blue viability reagent was added (10 μL per well) and incubated for 3 hours at 37° C. prior to fluorescence detection (Ex560 nm/Em590 nm) on a Varioskan Lux multimode plate reader.
Results from cell viability assays are summarized in Table 23, wherein A represents IC50≤1 μM; B represents 1 μM<IC50≤8 μM; and C represents IC50>8 μM. Blank cells indicate that the compound was not tested in a particular assay.

Human eIF4E (aa 28-217) = target: T1, Human eIF4E (aa 28-217) (Homo sapiens, UniProt P06730); assay: 4G-eIF4E protein-based assay (TR-FRET, biotin labeled 4G2 peptide); format: binding
T1 construct: Human eIF4E (aa 28-217) with a C-terminal His-tag; made in house
Procedure: Human eIF4E ([…]) with a C-terminal His-tag was expressed in E. coli in inclusion bodies. The protein was solubilized with 8 M urea and purified under denaturing conditions using nickel-charged HisTrap HP columns (GE Healthcare). The purified protein was then refolded by diluting in 20 mM Hepes pH 7.0, 0.5 M NaCl, 1 mM DTT, […], 0.5 M arginine plus 6 M urea, and then dialyzing overnight into the same buffer without the urea. The protein was further dialyzed into 20 mM Hepes, pH 6.5, 50 mM NaCl, 1 mM EDTA, 1 mM DTT, and concentrated using Hitrap SP sepharose FF columns (GE Healthcare). The concentrated protein was dialyzed into 20 mM Hepes, pH 7.0, 0.5M NaCl, 5 mM DTT and […], and stored at -80° C. until use. Test compounds (3.43 mM stock in DMSO) were diluted 2-fold in series in DMSO (10 concentration points). Compound solutions (1.2 μL/well) were added into black 384-well polypropylene microplates (Matrix, Thermal Scientific). […] The samples were incubated at room temperature (20-23° C.) for 4 hours. Biotin labeled 4G2 peptide ([…])-NH2, 1.75 μM stock in DMSO) was diluted to 0.13 μM in Assay Buffer (without DTT) and 5 μL/well was added. The samples were incubated at room temperature for 20 min. Five microliters per well of 15 nM Eu-streptavidin (Eu-SA, Perkin Elmer) and 96 nM Allophycocyanin (APC)-anti His antibody (Columbia Biosciences) in Assay Buffer (without DTT) were then added and the samples were incubated at room temperature for 20 min. Assay signals were monitored by reading excitation at 340 nm and emission fluorescence at 615 nm and 665 nm on an Envision reader (Perkin Elmer). Normalized TR-FRET (time-resolved fluorescence resonance energy transfer) assay signal (Rn) was calculated by the formula: […] C=(Ac-Ba)/(Dc-Bd) • Where Ac is the fluorescence intensity of 1.5 nM Eu-SA in the assay buffer at 665 nm. IC50 values were calculated using xLFit program (IDBS).

T1 sequence (P06730 28-217): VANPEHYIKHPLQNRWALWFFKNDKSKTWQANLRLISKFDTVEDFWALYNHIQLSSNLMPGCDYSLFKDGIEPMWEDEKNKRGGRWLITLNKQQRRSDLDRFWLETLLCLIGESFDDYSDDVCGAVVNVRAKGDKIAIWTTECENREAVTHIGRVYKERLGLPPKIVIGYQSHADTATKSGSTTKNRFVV

Structure (SMILES)	IC50 (Human eIF4E (aa 28-217)) [µM]	IC50 (ZR-75-1) [µM]
CC(C)Cc1sc(Nc2ncc(-c3cccs3)cc2C(=O)O)nc1C1=CCOCC1 [Compound I-1]	0.5 to 1	≤ 1
CC(C)Cc1sc(Nc2ncc(-c3cccs3)cc2C(=O)O)nc1C(C)(C)C [Compound I-11]	0.5 to 1	≤ 1
CC(C)Cc1sc(Nc2ncc(-c3cccs3)cc2C(=O)O)nc1C1=CCCCC1 [Compound I-2]	–	≤ 1
CC(C)Cc1sc(Nc2ncc(-c3cccs3)cc2C(=O)O)nc1C1=CCCC1 [Compound I-8]	0.5 to 1	≤ 1

Second part, led by results:

IC50 (Human eIF4E (aa 28-217)) [µM]	Structure (SMILES)	IC50 (ZR-75-1) [µM]
≤ 0.5	CC(C)Cc1sc(Nc2ncc(-c3cccs3)cc2C(=O)O)nc1C1(C)CCCCC1 [Compound I-27]	≤ 1
0.5 to 1	CC(C)Cc1sc(Nc2ncc(-c3cccs3)cc2C(=O)O)nc1C1CCC(F)(F)CC1 [Compound I-29]	≤ 1
0.5 to 1	CC(C)Cc1sc(Nc2ncc(-c3cccs3)cc2C(=O)O)nc1C1CCCCC1 [Compound I-3]	≤ 1
